# Source: patent US20060084172A1, “Method for producing stem cells with increased developmental potential” (Julius-Maximilians-Unversitat Wurzburg, priority 2001, published 2006)
# Experiments:
# Oct4 gene = assay: Oct4-gene specific RT-PCR after incubation of neural stem cells; assay type: cell-based, mouse; details: 2-day incubation of neural stem cells (NSC #417, NSC #125); 150-250 nanomolar Trichostatin A and/or 300-600 nanomolar 5-aza-2′ deoxycytidine; HPRT normalization
# Protocol: For investigating whether the incubation of adult neural stem cells of Example 1 with deacetylase inhibitors (e.g. Trichostatin A) and/or nucleotide analogs (e.g. 5-aza-2′ deoxycytidine), which prevent a methylation, influences the gene expression, the stem cells were incubated with one of these substances or a mixture of these substances. This was performed in Neurobasal medium, B27 supplement, 20-40 ng EGF, 20-40 ng FGF-2, 150-250 nanomolar Trichostatin A and/or 300-600 nanomolar 5-aza-2′ deoxycytidine for 2 or 4 days. Subsequently to the incubation, RNA was isolated from the cells, and cDNA was produced by means of the enzyme reverse transcriptase. By using gene-specific primers, the gene expression of the Oct4 gene was investigated. The Oct4 gene serves as an example of a development-specific regulator gene. It is only active in very early development stages (zygote, morula, blastula). Later, the expression is restricted to germ cells. The Oct4 gene is not transcribed in the adult organism outside the germ cells, thus also not in somatic stem cells. The Oct4 gene is thus only active in cells, which have a development potential larger than that of the somatic stem cells [see Pesce M, Anastassiedies K, Scholer H R (1999) Oct4: lessons of totipotency from embryonic stem cells. Cells Tissues Organs 165:144-152]. […] Under these conditions, no Oct4 expression was detected anymore. […]
# mouse blastocysts = assay: Injection of treated neural stem cells into blastocysts, Y chromosome-specific PCR of tissues of chimeric animals; assay type: in vivo; details: treated neural stem cells injected into blastocysts, animals examined at 4 weeks, FIG. 4b versus untreated FIG. 4a
# Description: In order to determine the plasticity of the employed somatic stem cell types, neural and hematopoietic stem cells of the Examples 1 and 2 were isolated and injected into mouse blastocysts (see FIG. 2). From the blastocyst develops the complete embryo and later the adult animal. By this method, the injected stem cells are subjected to all inductive processes, which take place during the development of the embryo. If the used hematopoietic or neural stem cells should have the capability to differentiate to all or many tissues or cell types of the adult animal, then descendants of the injected stem cells should be detectable for the developed animal in several different or all tissues and organs. If this detection is positive and the donor cells carry foreign, tissue-specific markers and perform foreign, tissue-specific functions, then the treatment of the somatic stem cells has led to an increased plasticity.
# In order to investigate the development potential of somatic stem cells treated according to Example 4, neural stem cells of Example 4 (from male animals) were washed and injected (20-40 pieces) into blastocysts, which were isolated from superovulated females after object pairing. […] Male donor cells, which originate from the injected neural stem cells (NSC), were detected by a Y chromosome-specific PCR reaction (YMT primer). […]
smiles,measurement,setting,value
CC(/C=C/C(=O)NO)=C\[C@@H](C)C(=O)c1ccc(N(C)C)cc1 [Trichostatin A],Oct4 gene expression (RT-PCR),Oct4 gene,reactivates the Oct4 gene
same,distribution spectrum of donor cells in tissues,mouse blastocysts,substantially wider distribution spectrum
